Measurements as given in patent publication US10647675B2 (priority 2015, dated 2020).
Values after ≈ are worked out from the molar mass of the structure shown.

Assays:
[1] = tested on: Trichophyton mentagrophytes SM-110; assay: Antifungal activity evaluation test: minimum inhibitory concentration (MIC), broth dilution by reference to CLSI M38-A2; type: cell-based; details: SM110, read-out: MIC (T. menta.)
Experimental: (§1) The minimum inhibitory concentration (MIC) for Trichophyton mentagrophytes and Trichophyton rubrum was measured by the following procedure by reference to Clinical and Laboratory standards Institute (CLSI) guidelines M38-A2. Reference document for the measurement method: National Committee for a Clinical Laboratory Standards. Reference method for broth dilution antifungal susceptibility testing of filamentous fungi. Approved standard Second edition M38-A2. Wayne, Pa.: National Committee for a Clinical Laboratory Standards, 2008. • Test compound solution: A test compound was dissolved in dimethyl sulfoxide (DMSO) at a concentration of 2.5 mg/mL to give a stock solution. The stock solution was appropriately diluted with DMSO to prepare a 2-fold dilution series. As control compounds, terbinafine and amorolfine were used. • Test strains: Trichophyton mentagrophytes SM-110 and Trichophyton rubrum KD-1130 were used. • Preparation of fungal culture to be inoculated: The above-mentioned test strain was suspended in 0.05% Tween 80-containing saline, and the fungi of the genus Trichophyton were prepared to a fungal concentration of 1×10^6 cells/mL by using a hemocytometer. Then, using MOPS-buffered RPMI 1640 medium (pH 7.0) as a test medium, a fungal culture of the fungi of the genus Trichophyton was diluted 250-fold (4×10^3 cells/mL) to give a fungal culture for inoculation. • MIC measurement of genus Trichophyton fungi: MOPS-buffered RPMI 1640 medium (pH 7.0) was dispensed by 100 μL to given wells of a 96 well U-bottom microplate. Then, the test compound solution (2 μL) was added, the mixture was sufficiently stirred by a plate mixer. The fungal culture (100 μL) was inoculated and the mixture was cultured at 35° C. for 4 days (final fungal concentration: 2×10^3 cells/mL). After the culture, the minimum drug concentration of a well in which a growth inhibitory action of not less than 80% was visually observed as compared to a growth control was taken as a minimum inhibitory concentration (MIC: μg/mL).
(§2) The abbreviations in the Tables mean the following fungi and compounds. • T. menta.: Trichophyton mentagrophytes • T. rubrum: Trichophyton rubrum • TBF: terbinafine • AMF: amorolfine

[2] = tested on: Trichophyton rubrum KD-1130; assay: as above; type: cell-based; details: KD1130, read-out: MIC (T. rubrum)
Experimental: as §1, §2

| SMILES | MIC [1] [µg/mL] | MIC [2] [µg/mL] |
| --- | --- | --- |
| COc1ccccc1-c1cccnc1Oc1ccc(C(F)(F)F)nc1 [I-1, 3-(2-methoxyphenyl)-2-{[6-(trifluoromethyl)pyridin-3-yl]oxy}pyridine] | ≤ 0.1 | ≤ 0.1 |
| COc1cccc(-c2cccnc2Oc2ccc(C(F)(F)F)nc2)c1 [I-2, 3-(3-methoxyphenyl)-2-{[6-(trifluoromethyl)pyridin-3-yl]oxy}pyridine] | ≤ 0.1 | ≤ 0.1 |
| Fc1ccccc1-c1cccnc1Oc1ccc(C(F)(F)F)nc1 [I-3, 3-(2-fluorophenyl)-2-{[6-(trifluoromethyl)pyridin-3-yl]oxy}pyridine] | ≤ 0.1 | ≤ 0.1 |
| FC(F)(F)c1ccc(Oc2ncccc2-c2ccccc2Cl)cn1 [I-4, 3-(2-chlorophenyl)-2-{[6-(trifluoromethyl)pyridin-3-yl]oxy}pyridine] | ≤ 0.1 | ≤ 0.1 |
| FC(F)(F)c1ccc(Oc2ncccc2-c2ccccc2Br)cn1 [I-5, 3-(2-bromophenyl)-2-{[6-(trifluoromethyl)pyridin-3-yl]oxy}pyridine] | 0.2 to 0.78 (≈ 0.506 to 1.97 µM) | ≤ 0.1 |
| Fc1cccc(F)c1-c1cccnc1Oc1ccc(C(F)(F)F)nc1 [I-6, 3-(2,6-difluorophenyl)-2-{[6-(trifluoromethyl)pyridin-3-yl]oxy}pyridine] | ≤ 0.1 | ≤ 0.1 |
| Fc1ccc(F)c(-c2cccnc2Oc2ccc(C(F)(F)F)nc2)c1 [I-7, 3-(2,5-difluorophenyl)-2-{[6-(trifluoromethyl)pyridin-3-yl]oxy}pyridine] | ≤ 0.1 | ≤ 0.1 |
| Fc1ccc(-c2cccnc2Oc2ccc(C(F)(F)F)nc2)c(F)c1 [I-8, 3-(2,4-difluorophenyl)-2-{[6-(trifluoromethyl)pyridin-3-yl]oxy}pyridine] | ≤ 0.1 | ≤ 0.1 |
| Fc1cccc(-c2cccnc2Oc2ccc(C(F)(F)F)nc2)c1F [I-9, 3-(2,3-difluorophenyl)-2-{[6-(trifluoromethyl)pyridin-3-yl]oxy}pyridine] | 0.2 to 0.78 (≈ 0.568 to 2.21 µM) | ≤ 0.1 |
| COc1cccc(F)c1-c1cccnc1Oc1ccc(C(F)(F)F)nc1 [I-10, 3-(2-fluoro-6-methoxyphenyl)-2-{[6-(trifluoromethyl)pyridin-3-yl]oxy}pyridine] | ≤ 0.1 | ≤ 0.1 |
| COc1ccc(F)cc1-c1cccnc1Oc1ccc(C(F)(F)F)nc1 [I-11, 3-(5-fluoro-2-methoxyphenyl)-2-{[6-(trifluoromethyl)pyridin-3-yl]oxy}pyridine] | ≤ 0.1 | ≤ 0.1 |
| COc1cc(F)ccc1-c1cccnc1Oc1ccc(C(F)(F)F)nc1 [I-12, 3-(4-fluoro-2-methoxyphenyl)-2-{[6-(trifluoromethyl)pyridin-3-yl]oxy}pyridine] | ≤ 0.1 | ≤ 0.1 |
| COc1c(F)cccc1-c1cccnc1Oc1ccc(C(F)(F)F)nc1 [I-13, 3-(3-fluoro-2-methoxyphenyl)-2-{[6-(trifluoromethyl)pyridin-3-yl]oxy}pyridine] | ≤ 0.1 | ≤ 0.1 |
| CSc1ccccc1-c1cccnc1Oc1ccc(C(F)(F)F)nc1 [I-14] | ≤ 0.1 | ≤ 0.1 |
| O=[N+]([O-])c1ccccc1-c1cccnc1Oc1ccc(C(F)(F)F)nc1 [I-15, 3-(2-nitrophenyl)-2-{[6-(trifluoromethyl)pyridin-3-yl]oxy}pyridine] | 0.2 to 0.78 (≈ 0.554 to 2.16 µM) | 0.2 to 0.78 (≈ 0.554 to 2.16 µM) |
| CCc1ccccc1-c1cccnc1Oc1ccc(C(F)(F)F)nc1 [I-16, 3-(2-ethylphenyl)-2-{[6-(trifluoromethyl)pyridin-3-yl]oxy}pyridine] | ≤ 0.1 | ≤ 0.1 |
| CCOc1ccccc1-c1cccnc1Oc1ccc(C(F)(F)F)nc1 [I-17, 3-(2-ethoxyphenyl)-2-{[6-(trifluoromethyl)pyridin-3-yl]oxy}pyridine] | 0.2 to 0.78 (≈ 0.555 to 2.16 µM) | 0.2 to 0.78 (≈ 0.555 to 2.16 µM) |
| CC(=O)c1ccccc1-c1cccnc1Oc1ccc(C(F)(F)F)nc1 [I-19, 1-[2-(2-{[6-(trifluoromethyl)pyridin-3-yl]oxy}pyridin-3-yl)phenyl]ethanone] | 1.56 to 6.25 (≈ 4.35 to 17.4 µM) | 1.56 to 6.25 (≈ 4.35 to 17.4 µM) |
| COC(=O)c1ccccc1-c1cccnc1Oc1ccc(C(F)(F)F)nc1 [I-20, methyl 2-(2-{[6-(trifluoromethyl)pyridin-3-yl]oxy}pyridin-3-yl)benzoate] | 1.56 to 6.25 (≈ 4.17 to 16.7 µM) | 0.2 to 0.78 (≈ 0.534 to 2.08 µM) |

| SMILES | MIC [1] [µg/mL] | MIC [2] [µg/mL] |
| --- | --- | --- |
| FC(F)(F)Oc1ccccc1-c1cccnc1Oc1ccc(C(F)(F)F)nc1 [I-21, 3-(2-trifluoromethoxyphenyl)-2-{[6-(trifluoromethyl)pyridin-3-yl]oxy}pyridine] | 0.2 to 0.78 (≈ 0.5 to 1.95 µM) | 0.2 to 0.78 (≈ 0.5 to 1.95 µM) |
| COc1ccc(Cl)cc1-c1cccnc1Oc1ccc(C(F)(F)F)nc1 [I-23, 3-(5-chloro-2-methoxyphenyl)-2-{[6-(trifluoromethyl)pyridin-3-yl]oxy}pyridine] | ≤ 0.1 | ≤ 0.1 |
| Cc1ncccc1-c1cccnc1Oc1ccc(C(F)(F)F)nc1 [I-24, 2-methyl-2′-{[6-(trifluoromethyl)pyridin-3-yl]oxy}-3,3′-bipyridine] | 1.56 to 6.25 (≈ 4.71 to 18.9 µM) | 1.56 to 6.25 (≈ 4.71 to 18.9 µM) |
| Cc1ccncc1-c1cccnc1Oc1ccc(C(F)(F)F)nc1 [I-25] | 0.2 to 0.78 (≈ 0.604 to 2.35 µM) | 0.2 to 0.78 (≈ 0.604 to 2.35 µM) |
| COc1ncccc1-c1cccnc1Oc1ccc(C(F)(F)F)nc1 [I-26, 2-methoxy-2′-{[6-(trifluoromethyl)pyridin-3-yl]oxy}-3,3′-bipyridine] | ≤ 0.1 | ≤ 0.1 |
| COc1ccncc1-c1cccnc1Oc1ccc(C(F)(F)F)nc1 [I-28, 4′-methoxy-2-{[6-(trifluoromethyl)pyridin-3-yl]oxy}-3,3′-bipyridine] | 0.2 to 0.78 (≈ 0.576 to 2.25 µM) | 0.2 to 0.78 (≈ 0.576 to 2.25 µM) |
| COc1nc(C)ccc1-c1cccnc1Oc1ccc(C(F)(F)F)nc1 [I-29, 2-methoxy-6-methyl-2′-{[6-(trifluoromethyl)pyridin-3-yl]oxy}-3,3′-bipyridine] | ≤ 0.1 | ≤ 0.1 |
| COc1ncc(C)cc1-c1cccnc1Oc1ccc(C(F)(F)F)nc1 [I-30, 2-methoxy-5-methyl-2′-{[6-(trifluoromethyl)pyridin-3-yl]oxy}-3,3′-bipyridine] | ≤ 0.1 | ≤ 0.1 |
| COc1ncc(Cl)cc1-c1cccnc1Oc1ccc(C(F)(F)F)nc1 [I-31, 5-chloro-2-methoxy-2′-{[6-(trifluoromethyl)pyridin-3-yl]oxy}-3,3′-bipyridine] | ≤ 0.1 | ≤ 0.1 |
| COc1ncc(F)cc1-c1cccnc1Oc1ccc(C(F)(F)F)nc1 [I-32, 5-fluoro-2-methoxy-2′-{[6-(trifluoromethyl)pyridin-3-yl]oxy}-3,3′-bipyridine] | 0.2 to 0.78 (≈ 0.548 to 2.14 µM) | ≤ 0.1 |
| FC(F)(F)c1ccc(Oc2ncccc2-c2cccc3cnccc23)cn1 [I-33, 5-(2-{[6-(trifluoromethyl)pyridin-3-yl]oxy}pyridin-3-yl)isoquinoline] | 1.56 to 6.25 (≈ 4.25 to 17 µM) | 1.56 to 6.25 (≈ 4.25 to 17 µM) |
| FC(F)(F)c1ccc(Oc2ncccc2-c2cccc3cccnc23)cn1 [I-34, 8-(2-{[6-(trifluoromethyl)pyridin-3-yl]oxy}pyridin-3-yl)quinoline] | ≤ 0.1 | ≤ 0.1 |
| FC(F)(F)c1ccc(Oc2ncccc2-c2cccc3c2OCC3)cn1 [I-35, 3-(2,3-dihydrobenzofuran-7-yl)-2-{[6-(trifluoromethyl)pyridin-3-yl]oxy}pyridine] | ≤ 0.1 | ≤ 0.1 |
| FC(F)(F)c1ccc(Oc2ncccc2-c2cccc3ncccc23)cn1 [I-36, 5-(2-{[6-(trifluoromethyl)pyridin-3-yl]oxy}pyridin-3-yl)quinoline] | ≤ 0.1 | 0.2 to 0.78 (≈ 0.544 to 2.12 µM) |
| FC(F)(F)c1ccc(Oc2ncccc2-c2cccc3nccnc23)cn1 [I-37, 5-(2-{[6-(trifluoromethyl)pyridin-3-yl]oxy}pyridin-3-yl)quinoxaline] | 0.2 to 0.78 (≈ 0.543 to 2.12 µM) | 0.2 to 0.78 (≈ 0.543 to 2.12 µM) |
| FC(F)(F)c1ccc(Oc2ncccc2-c2cccc3c2OCCC3)cn1 [I-38, 3-(chroman-8-yl)-2-{[6-(trifluoromethyl)pyridin-3-yl]oxy}pyridine] | ≤ 0.1 | ≤ 0.1 |
| FC1(F)Oc2cccc(-c3cccnc3Oc3ccc(C(F)(F)F)nc3)c2O1 [I-39, 3-(2,2-difluorobenzo[1,3]dioxol-4-yl)-2-{[6-(trifluoromethyl)pyridin-3-yl]oxy}pyridine] | ≤ 0.1 | 0.2 to 0.78 (≈ 0.505 to 1.97 µM) |
| O=C1CCc2cccc(-c3cccnc3Oc3ccc(C(F)(F)F)nc3)c21 [I-40, 7-(2-{[6-(trifluoromethyl)pyridin-3-yl]oxy}pyridin-3-yl)-2,3-dihydro-1H-inden-1-one] | 0.2 to 0.78 (≈ 0.54 to 2.11 µM) | 0.2 to 0.78 (≈ 0.54 to 2.11 µM) |
| Fc1cc2c(c(-c3cccnc3Oc3ccc(C(F)(F)F)nc3)c1)OCC2 [I-41, 3-(5-fluoro-2,3-dihydrobenzofuran-7-yl)-2-{[6-(trifluoromethyl)pyridin-3-yl]oxy}pyridine] | ≤ 0.1 | ≤ 0.1 |
